Source: the kinase profiling compilation of Christmann-Franck et al. (2016)
One block for each compound: values may come before it.

Legend:
Experiment in all cases: radiometric filter-binding kinase assay, Kinase HotSpot
Settings in all cases: compound 0.5 µM; ATP 10 µM
ROCK1 (human) = ROCK1 (human) (UniProt Q13464)
TGFBR1 (human) = TGFBR1 (human) (UniProt P36897)
BRSK2 (human) = BRSK2 (human) (UniProt Q8IWQ3)
RAF1 (human) = RAF1 (human) (UniProt P04049)
AKT2 (human) = AKT2 (human) (UniProt P31751)
AKT2 (human), sequence (P31751 whole entry, looked up): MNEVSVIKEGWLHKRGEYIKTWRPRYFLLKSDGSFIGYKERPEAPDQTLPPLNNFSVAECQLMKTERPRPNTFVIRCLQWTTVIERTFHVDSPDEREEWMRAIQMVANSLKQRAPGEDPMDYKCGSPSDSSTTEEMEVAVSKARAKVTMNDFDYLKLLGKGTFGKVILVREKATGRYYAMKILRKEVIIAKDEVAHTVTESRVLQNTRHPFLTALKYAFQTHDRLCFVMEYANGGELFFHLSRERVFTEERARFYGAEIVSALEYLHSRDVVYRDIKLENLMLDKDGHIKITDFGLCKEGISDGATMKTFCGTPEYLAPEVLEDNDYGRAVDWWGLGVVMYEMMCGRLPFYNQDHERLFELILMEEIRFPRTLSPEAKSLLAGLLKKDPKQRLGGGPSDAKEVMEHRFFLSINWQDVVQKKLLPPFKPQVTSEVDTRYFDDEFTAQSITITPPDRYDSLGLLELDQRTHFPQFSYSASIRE

EGFR (human) = EGFR (human) (UniProt P00533)
NEK4 (human) = NEK4 (human) (UniProt P51957)
KIT (human) = KIT (human) (UniProt P10721)
MARK4 (human) = MARK4 (human) (UniProt Q96L34)
CLK4 (human) = CLK4 (human) (UniProt Q9HAZ1)
DMPK (human) = DMPK (human) (UniProt Q09013)
PAK1 (human) = PAK1 (human) (UniProt Q13153)
CHUK (human) = CHUK (human) (UniProt O15111)
MAP3K10 (human) = MAP3K10 (human) (UniProt Q02779)
CSNK2A2 (human) = CSNK2A2 (human) (UniProt P19784)
CSNK2A2 (human), sequence (P19784 whole entry, looked up): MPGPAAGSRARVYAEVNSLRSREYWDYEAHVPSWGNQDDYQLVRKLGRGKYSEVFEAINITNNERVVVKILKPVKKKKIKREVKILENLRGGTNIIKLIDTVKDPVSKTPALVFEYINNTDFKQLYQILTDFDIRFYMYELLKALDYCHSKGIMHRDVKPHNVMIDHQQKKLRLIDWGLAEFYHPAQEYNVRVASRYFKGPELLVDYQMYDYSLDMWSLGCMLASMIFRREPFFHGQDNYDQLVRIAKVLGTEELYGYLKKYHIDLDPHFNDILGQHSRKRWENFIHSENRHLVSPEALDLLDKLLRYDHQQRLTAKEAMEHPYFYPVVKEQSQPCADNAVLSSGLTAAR

IKBKB (human) = IKBKB (human) (UniProt O14920)
SYK (human) = SYK (human) (UniProt P43405)
MST1R (human) = MST1R (human) (UniProt Q04912)
NEK11 (human) = NEK11 (human) (UniProt Q8NG66)
SGK2 (human) = SGK2 (human) (UniProt Q9HBY8)
[1] = target: TYK2 JH1 catalytic (human) (UniProt P29597)
DAPK1 (human) = DAPK1 (human) (UniProt P53355)
EPHA1 (human) = EPHA1 (human) (UniProt P21709)
EPHA1 (human), sequence (P21709 whole entry, looked up): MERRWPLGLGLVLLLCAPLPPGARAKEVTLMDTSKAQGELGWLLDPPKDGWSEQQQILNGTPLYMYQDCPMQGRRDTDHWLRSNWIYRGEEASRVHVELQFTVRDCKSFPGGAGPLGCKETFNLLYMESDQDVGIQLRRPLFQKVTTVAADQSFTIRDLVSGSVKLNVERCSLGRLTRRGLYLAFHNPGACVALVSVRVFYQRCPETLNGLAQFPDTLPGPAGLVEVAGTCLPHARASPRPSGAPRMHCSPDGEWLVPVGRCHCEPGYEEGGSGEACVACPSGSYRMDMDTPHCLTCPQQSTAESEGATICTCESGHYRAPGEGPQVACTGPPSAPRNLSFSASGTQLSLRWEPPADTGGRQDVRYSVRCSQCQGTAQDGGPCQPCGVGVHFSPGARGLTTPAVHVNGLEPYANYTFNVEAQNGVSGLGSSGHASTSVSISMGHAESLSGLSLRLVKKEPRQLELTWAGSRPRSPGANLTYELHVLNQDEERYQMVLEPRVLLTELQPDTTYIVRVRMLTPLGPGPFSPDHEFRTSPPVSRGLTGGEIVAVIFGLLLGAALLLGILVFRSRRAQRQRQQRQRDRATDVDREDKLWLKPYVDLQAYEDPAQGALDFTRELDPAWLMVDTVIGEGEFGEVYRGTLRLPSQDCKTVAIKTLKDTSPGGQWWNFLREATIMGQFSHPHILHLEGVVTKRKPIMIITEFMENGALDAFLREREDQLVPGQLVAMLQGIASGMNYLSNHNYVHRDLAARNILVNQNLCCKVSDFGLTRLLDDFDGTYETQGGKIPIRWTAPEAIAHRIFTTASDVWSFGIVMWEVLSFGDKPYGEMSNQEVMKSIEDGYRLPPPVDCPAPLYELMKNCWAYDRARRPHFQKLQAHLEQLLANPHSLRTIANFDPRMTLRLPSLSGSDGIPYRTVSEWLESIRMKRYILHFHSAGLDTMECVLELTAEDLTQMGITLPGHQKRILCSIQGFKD

MAPKAPK2 (human) = MAPKAPK2 (human) (UniProt P49137)
IKBKE (human) = IKBKE (human) (UniProt Q14164)
IKBKE (human), sequence (Q14164 whole entry, looked up): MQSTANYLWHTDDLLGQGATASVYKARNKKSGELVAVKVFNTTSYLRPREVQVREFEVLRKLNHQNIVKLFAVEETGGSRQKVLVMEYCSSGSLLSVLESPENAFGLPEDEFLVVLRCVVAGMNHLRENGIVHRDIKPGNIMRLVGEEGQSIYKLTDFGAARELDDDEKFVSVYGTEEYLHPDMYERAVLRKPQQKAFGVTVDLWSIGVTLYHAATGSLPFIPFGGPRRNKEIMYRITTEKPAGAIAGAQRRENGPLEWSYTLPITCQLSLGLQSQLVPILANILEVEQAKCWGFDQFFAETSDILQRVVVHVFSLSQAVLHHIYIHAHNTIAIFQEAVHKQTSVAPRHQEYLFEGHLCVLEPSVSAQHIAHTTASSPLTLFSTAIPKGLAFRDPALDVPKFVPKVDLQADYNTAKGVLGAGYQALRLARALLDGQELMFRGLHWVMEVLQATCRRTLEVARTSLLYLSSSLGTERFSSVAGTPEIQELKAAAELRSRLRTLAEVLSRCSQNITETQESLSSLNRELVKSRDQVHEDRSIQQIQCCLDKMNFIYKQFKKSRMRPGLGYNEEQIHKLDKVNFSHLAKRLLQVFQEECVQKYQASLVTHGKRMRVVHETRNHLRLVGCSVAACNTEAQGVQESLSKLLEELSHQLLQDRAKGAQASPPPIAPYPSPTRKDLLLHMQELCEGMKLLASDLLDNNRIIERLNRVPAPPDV

EPHA3 (human) = EPHA3 (human) (UniProt P29320)
PAK2 (human) = PAK2 (human) (UniProt Q13177)
PAK6 (human) = PAK6 (human) (UniProt Q9NQU5)
PAK6 (human), sequence (Q9NQU5 whole entry, looked up): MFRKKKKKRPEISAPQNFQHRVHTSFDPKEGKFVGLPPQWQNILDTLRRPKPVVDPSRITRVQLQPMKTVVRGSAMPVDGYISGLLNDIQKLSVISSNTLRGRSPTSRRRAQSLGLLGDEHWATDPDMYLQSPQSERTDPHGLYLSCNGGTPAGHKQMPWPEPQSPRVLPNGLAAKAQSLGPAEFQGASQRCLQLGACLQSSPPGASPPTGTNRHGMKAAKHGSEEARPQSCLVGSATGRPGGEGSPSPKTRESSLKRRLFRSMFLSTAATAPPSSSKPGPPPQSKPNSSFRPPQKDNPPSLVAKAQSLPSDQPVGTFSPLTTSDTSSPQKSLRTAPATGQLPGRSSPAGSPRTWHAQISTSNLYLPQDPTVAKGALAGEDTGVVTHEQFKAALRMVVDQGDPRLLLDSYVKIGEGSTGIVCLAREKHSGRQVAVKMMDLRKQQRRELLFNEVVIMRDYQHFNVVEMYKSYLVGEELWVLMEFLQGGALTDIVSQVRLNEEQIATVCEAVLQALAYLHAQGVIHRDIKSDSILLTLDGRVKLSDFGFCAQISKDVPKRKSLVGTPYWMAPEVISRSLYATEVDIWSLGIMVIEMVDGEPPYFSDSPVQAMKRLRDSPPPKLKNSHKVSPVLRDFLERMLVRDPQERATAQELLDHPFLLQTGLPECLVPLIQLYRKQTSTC

MERTK (human) = MERTK (human) (UniProt Q12866)
CSNK1G3 (human) = CSNK1G3 (human) (UniProt Q9Y6M4)
HIPK2 (human) = HIPK2 (human) (UniProt Q9H2X6)
MAPK9 (human) = MAPK9 (human) (UniProt P45984)
CDK1 CCNA2 (human) = CDK1 CCNA2 (human) (UniProt P06493+P20248)
NTRK1 (human) = NTRK1 (human) (UniProt P04629)
NTRK1 (human), sequence (P04629 whole entry, looked up): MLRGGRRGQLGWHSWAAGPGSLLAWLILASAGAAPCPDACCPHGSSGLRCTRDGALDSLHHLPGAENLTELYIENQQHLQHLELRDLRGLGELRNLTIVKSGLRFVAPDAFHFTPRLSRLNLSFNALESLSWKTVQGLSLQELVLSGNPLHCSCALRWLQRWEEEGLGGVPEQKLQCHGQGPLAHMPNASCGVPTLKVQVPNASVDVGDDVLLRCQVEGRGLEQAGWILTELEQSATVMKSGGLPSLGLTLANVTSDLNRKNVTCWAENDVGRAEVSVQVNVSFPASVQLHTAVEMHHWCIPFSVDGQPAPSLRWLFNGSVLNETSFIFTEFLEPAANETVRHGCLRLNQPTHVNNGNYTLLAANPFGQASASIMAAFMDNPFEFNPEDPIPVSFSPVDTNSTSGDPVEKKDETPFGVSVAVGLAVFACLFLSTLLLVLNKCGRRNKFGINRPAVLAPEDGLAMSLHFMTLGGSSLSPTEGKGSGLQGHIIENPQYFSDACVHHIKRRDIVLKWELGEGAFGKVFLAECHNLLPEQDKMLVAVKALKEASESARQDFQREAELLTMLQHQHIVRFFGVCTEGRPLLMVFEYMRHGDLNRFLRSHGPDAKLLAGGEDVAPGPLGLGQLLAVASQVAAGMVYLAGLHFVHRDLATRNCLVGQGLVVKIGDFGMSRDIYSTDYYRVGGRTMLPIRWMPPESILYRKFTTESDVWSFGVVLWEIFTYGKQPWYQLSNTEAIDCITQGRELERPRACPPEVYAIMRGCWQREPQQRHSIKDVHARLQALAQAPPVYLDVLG

DDR2 (human) = DDR2 (human) (UniProt Q16832)
GSK3B (human) = GSK3B (human) (UniProt P49841)
GSK3B (human), sequence (P49841 whole entry, looked up): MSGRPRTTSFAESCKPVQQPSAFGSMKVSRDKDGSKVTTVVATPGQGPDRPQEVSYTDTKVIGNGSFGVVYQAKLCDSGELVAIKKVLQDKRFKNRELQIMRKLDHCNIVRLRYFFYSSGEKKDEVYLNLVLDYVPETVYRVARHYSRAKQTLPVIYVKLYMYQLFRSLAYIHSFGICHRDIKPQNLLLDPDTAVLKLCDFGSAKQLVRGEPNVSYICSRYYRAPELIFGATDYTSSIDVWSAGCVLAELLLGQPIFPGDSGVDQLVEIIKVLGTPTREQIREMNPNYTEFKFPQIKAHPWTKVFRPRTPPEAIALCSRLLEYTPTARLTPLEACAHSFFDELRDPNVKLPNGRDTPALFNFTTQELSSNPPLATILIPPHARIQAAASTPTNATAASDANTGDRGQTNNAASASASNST

EPHB4 (human) = EPHB4 (human) (UniProt P54760)
ZAP70 (human) = ZAP70 (human) (UniProt P43403)
ZAP70 (human), sequence (P43403 whole entry, looked up): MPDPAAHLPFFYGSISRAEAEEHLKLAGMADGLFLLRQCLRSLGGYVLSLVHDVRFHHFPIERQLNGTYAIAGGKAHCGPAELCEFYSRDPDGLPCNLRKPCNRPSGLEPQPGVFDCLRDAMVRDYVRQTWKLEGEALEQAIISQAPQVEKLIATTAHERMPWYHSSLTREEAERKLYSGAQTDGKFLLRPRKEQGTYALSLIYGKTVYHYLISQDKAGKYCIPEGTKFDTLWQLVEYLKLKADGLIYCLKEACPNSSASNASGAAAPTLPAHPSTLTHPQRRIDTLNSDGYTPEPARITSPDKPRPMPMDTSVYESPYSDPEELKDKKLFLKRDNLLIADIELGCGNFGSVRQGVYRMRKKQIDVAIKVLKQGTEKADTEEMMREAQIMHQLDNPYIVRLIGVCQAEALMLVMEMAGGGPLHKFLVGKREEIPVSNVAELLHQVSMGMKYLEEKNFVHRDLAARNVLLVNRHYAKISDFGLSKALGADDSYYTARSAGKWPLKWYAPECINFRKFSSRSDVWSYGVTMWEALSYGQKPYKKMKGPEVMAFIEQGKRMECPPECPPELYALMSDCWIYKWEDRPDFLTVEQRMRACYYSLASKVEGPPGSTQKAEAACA

TEK (human) = TEK (human) (UniProt Q02763)
MET (human) = MET (human) (UniProt P08581)
DYRK3 (human) = DYRK3 (human) (UniProt O43781)
WNK3 (human) = WNK3 (human) (UniProt Q9BYP7)

residual activity (ROCK1 (human)): 84% | residual activity (TGFBR1 (human)): 103% | residual activity (BRSK2 (human)): 89% | residual activity (RAF1 (human)): 114% | residual activity (AKT2 (human)): 102% | residual activity (EGFR (human)): 97.1% | residual activity (NEK4 (human)): 79.7% | residual activity (KIT (human)): 51.3% | residual activity (MARK4 (human)): 36.2% | residual activity (CLK4 (human)): 34.3% | residual activity (DMPK (human)): 113% | residual activity (PAK1 (human)): 87.7% | residual activity (CHUK (human)): 100% | residual activity (MAP3K10 (human)): 74% | residual activity (CSNK2A2 (human)): 84.6% | residual activity (IKBKB (human)): 107% | residual activity (SYK (human)): 96.7% | residual activity (MST1R (human)): 103% | residual activity (NEK11 (human)): 103% | residual activity (SGK2 (human)): 103% | residual activity [1]: 75.1% | residual activity (DAPK1 (human)): 106% | residual activity (EPHA1 (human)): 108% | residual activity (MAPKAPK2 (human)): 104% | residual activity (IKBKE (human)): 74.2% | residual activity (EPHA3 (human)): 103% | residual activity (PAK2 (human)): 96.2% | residual activity (PAK6 (human)): 108% | residual activity (MERTK (human)): 21.4% | residual activity (CSNK1G3 (human)): 93.3% | residual activity (HIPK2 (human)): 105% | residual activity (MAPK9 (human)): 78% | residual activity (CDK1 CCNA2 (human)): 88.7% | residual activity (NTRK1 (human)): 7.81% | residual activity (DDR2 (human)): 105% | residual activity (GSK3B (human)): 96.1% | residual activity (EPHB4 (human)): 95.4% | residual activity (ZAP70 (human)): 94.4% | residual activity (TEK (human)): 90.8% | residual activity (MET (human)): 1.18%
Structure (SMILES): Cc1[nH]c(/C=C2\C(=O)Nc3ccc(S(=O)(=O)N(C)c4cccc(Cl)c4)cc32)c(C)c1C(=O)N1CCN(C)CC1

Structure (SMILES): CC(=O)c1ccc(N2CCOCC2)cc1O
residual activity (ROCK1 (human)): 92.9% | residual activity (TGFBR1 (human)): 96.6% | residual activity (BRSK2 (human)): 100% | residual activity (RAF1 (human)): 96.2% | residual activity (AKT2 (human)): 96.2% | residual activity (EGFR (human)): 97.4% | residual activity (NEK4 (human)): 103% | residual activity (KIT (human)): 102% | residual activity (MARK4 (human)): 99.4% | residual activity (CLK4 (human)): 111% | residual activity (DMPK (human)): 105% | residual activity (PAK1 (human)): 93.7% | residual activity (CHUK (human)): 96.2% | residual activity (MAP3K10 (human)): 104% | residual activity (CSNK2A2 (human)): 98.8% | residual activity (IKBKB (human)): 103% | residual activity (SYK (human)): 92.6% | residual activity (MST1R (human)): 104% | residual activity (NEK11 (human)): 98.6% | residual activity (SGK2 (human)): 101% | residual activity [1]: 110% | residual activity (DAPK1 (human)): 92.8% | residual activity (EPHA1 (human)): 94% | residual activity (MAPKAPK2 (human)): 103% | residual activity (IKBKE (human)): 105% | residual activity (EPHA3 (human)): 108% | residual activity (PAK2 (human)): 98.8% | residual activity (PAK6 (human)): 93.7% | residual activity (DYRK3 (human)): 93.9% | residual activity (MERTK (human)): 101% | residual activity (CSNK1G3 (human)): 101% | residual activity (HIPK2 (human)): 106% | residual activity (MAPK9 (human)): 105% | residual activity (CDK1 CCNA2 (human)): 99.8% | residual activity (NTRK1 (human)): 97.2% | residual activity (DDR2 (human)): 104% | residual activity (GSK3B (human)): 122% | residual activity (EPHB4 (human)): 97.6% | residual activity (ZAP70 (human)): 99.5% | residual activity (TEK (human)): 101% | residual activity (MET (human)): 122%

Structure (SMILES): c1ccc(-c2n[nH]c3c2oc2ccccc23)cc1
residual activity (ROCK1 (human)): 99.1% | residual activity (TGFBR1 (human)): 94.9% | residual activity (BRSK2 (human)): 101% | residual activity (RAF1 (human)): 94.9% | residual activity (AKT2 (human)): 112% | residual activity (NEK4 (human)): 92.9% | residual activity (KIT (human)): 38% | residual activity (MARK4 (human)): 98.2% | residual activity (CLK4 (human)): 98.9% | residual activity (DMPK (human)): 99.5% | residual activity (PAK1 (human)): 94.9% | residual activity (CHUK (human)): 92.3% | residual activity (MAP3K10 (human)): 91.4% | residual activity (CSNK2A2 (human)): 85.6% | residual activity (IKBKB (human)): 92.2% | residual activity (WNK3 (human)): 91.5% | residual activity (SYK (human)): 97.7% | residual activity (MST1R (human)): 87.4% | residual activity (NEK11 (human)): 103% | residual activity (SGK2 (human)): 93% | residual activity [1]: 89.2% | residual activity (DAPK1 (human)): 71% | residual activity (EPHA1 (human)): 78.6% | residual activity (MAPKAPK2 (human)): 99.1% | residual activity (IKBKE (human)): 101% | residual activity (EPHA3 (human)): 104% | residual activity (PAK2 (human)): 92.3% | residual activity (PAK6 (human)): 87.5% | residual activity (DYRK3 (human)): 93% | residual activity (MERTK (human)): 80% | residual activity (CSNK1G3 (human)): 88.5% | residual activity (HIPK2 (human)): 99.6% | residual activity (MAPK9 (human)): 96.5% | residual activity (CDK1 CCNA2 (human)): 94.1% | residual activity (NTRK1 (human)): 85.6% | residual activity (DDR2 (human)): 96% | residual activity (GSK3B (human)): 105% | residual activity (EPHB4 (human)): 112% | residual activity (ZAP70 (human)): 89% | residual activity (TEK (human)): 96.8% | residual activity (MET (human)): 98.4%

residual activity (ROCK1 (human)): 106% | residual activity (TGFBR1 (human)): 96.1% | residual activity (BRSK2 (human)): 98.3% | residual activity (RAF1 (human)): 71.3% | residual activity (AKT2 (human)): 99.7% | residual activity (NEK4 (human)): 92.1% | residual activity (KIT (human)): 21.6% | residual activity (MARK4 (human)): 85.2% | residual activity (CLK4 (human)): 98% | residual activity (DMPK (human)): 136% | residual activity (PAK1 (human)): 96% | residual activity (CHUK (human)): 99.7% | residual activity (MAP3K10 (human)): 82.6% | residual activity (CSNK2A2 (human)): 74.7% | residual activity (IKBKB (human)): 101% | residual activity (WNK3 (human)): 85.2% | residual activity (SYK (human)): 104% | residual activity (MST1R (human)): 94% | residual activity (NEK11 (human)): 87.1% | residual activity (SGK2 (human)): 95.4% | residual activity [1]: 98.5% | residual activity (DAPK1 (human)): 79.1% | residual activity (EPHA1 (human)): 101% | residual activity (MAPKAPK2 (human)): 107% | residual activity (IKBKE (human)): 97.4% | residual activity (EPHA3 (human)): 96.3% | residual activity (PAK2 (human)): 106% | residual activity (PAK6 (human)): 88.2% | residual activity (DYRK3 (human)): 94.9% | residual activity (MERTK (human)): 87.4% | residual activity (CSNK1G3 (human)): 99.5% | residual activity (HIPK2 (human)): 106% | residual activity (MAPK9 (human)): 100% | residual activity (CDK1 CCNA2 (human)): 93.7% | residual activity (NTRK1 (human)): 94.3% | residual activity (DDR2 (human)): 95% | residual activity (GSK3B (human)): 99.2% | residual activity (EPHB4 (human)): 98.3% | residual activity (ZAP70 (human)): 102% | residual activity (TEK (human)): 94.3% | residual activity (MET (human)): 110%
Structure (SMILES): Nc1ncnc2c1c(-c1ccc(Oc3ccccc3)cc1)cn2C1CCCC1

Structure (SMILES): N#CC(C#N)=C(N)/C(C#N)=C/c1ccc(O)cc1
residual activity (ROCK1 (human)): 100% | residual activity (TGFBR1 (human)): 93% | residual activity (BRSK2 (human)): 101% | residual activity (RAF1 (human)): 86.3% | residual activity (AKT2 (human)): 92.8% | residual activity (NEK4 (human)): 93.3% | residual activity (KIT (human)): 92.4% | residual activity (MARK4 (human)): 94.3% | residual activity (CLK4 (human)): 101% | residual activity (DMPK (human)): 101% | residual activity (PAK1 (human)): 90.9% | residual activity (CHUK (human)): 94% | residual activity (MAP3K10 (human)): 98% | residual activity (CSNK2A2 (human)): 102% | residual activity (IKBKB (human)): 102% | residual activity (WNK3 (human)): 99.8% | residual activity (SYK (human)): 101% | residual activity (MST1R (human)): 102% | residual activity (NEK11 (human)): 97.2% | residual activity (SGK2 (human)): 110% | residual activity [1]: 97.4% | residual activity (DAPK1 (human)): 92.7% | residual activity (EPHA1 (human)): 103% | residual activity (MAPKAPK2 (human)): 91.3% | residual activity (IKBKE (human)): 91% | residual activity (EPHA3 (human)): 98.3% | residual activity (PAK2 (human)): 86% | residual activity (PAK6 (human)): 97% | residual activity (DYRK3 (human)): 97.7% | residual activity (MERTK (human)): 93.5% | residual activity (CSNK1G3 (human)): 100% | residual activity (HIPK2 (human)): 102% | residual activity (MAPK9 (human)): 105% | residual activity (CDK1 CCNA2 (human)): 90.6% | residual activity (NTRK1 (human)): 102% | residual activity (DDR2 (human)): 97.6% | residual activity (GSK3B (human)): 89.5% | residual activity (EPHB4 (human)): 88.1% | residual activity (ZAP70 (human)): 96% | residual activity (TEK (human)): 104% | residual activity (MET (human)): 117%
